Reference: the supplement of paper PMC10307832

Columns and labels:
Experiment in all cases: relative viability (nuclei count vs DMSO), 5 days (fraction); higher = more cells survive
Tivantinib + Lapatinib = compound: O=C1NC(=O)[C@@H](c2cn3c4c(cccc24)CCC3)[C@@H]1c1c[nH]c2ccccc12 [Tivantinib] + CS(=O)(=O)CCNCc1ccc(-c2ccc3ncnc(Nc4ccc(OCc5cccc(F)c5)c(Cl)c4)c3c2)o1 [Lapatinib] (partner 2 µM)
Method in brief: (§1)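 A single step with final 0.05% Triton X-100, 1% formaldehyde and 1 ug/ml Hoechst fixed the cells and stained nuclei 5 days after treatment. Lung cancer cell lines in 1536-well plates had been treated by pin tool the day after seeding with one drug alone or a fixed anchor-drug dose plus five library-drug doses (not always all listed) in √10 steps, and nuclei were counted on 4× images. Relative viability is the ratio of nuclei in treated wells to nuclei in vehicle wells, taken as the median of duplicate plates.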

Crenolanib + Vorinostat = compound: CC1(COc2ccc3c(c2)ncn3-c2ccc3cccc(N4CCC(N)CC4)c3n2)COC1 [Crenolanib] + O=C(CCCCCCC(=O)Nc1ccccc1)NO [Vorinostat] (partner 1 µM)
Method in brief: as §1

Tivantinib + Alpelisib = compound: O=C1NC(=O)[C@@H](c2cn3c4c(cccc24)CCC3)[C@@H]1c1c[nH]c2ccccc12 [Tivantinib] + Cc1nc(NC(=O)N2CCC[C@H]2C(N)=O)sc1-c1ccnc(C(C)(C)C(F)(F)F)c1 [Alpelisib] (partner 2 µM)
Method in brief: as §1

Crenolanib + Decitabine = compound: CC1(COc2ccc3c(c2)ncn3-c2ccc3cccc(N4CCC(N)CC4)c3n2)COC1 [Crenolanib] + Nc1ncn([C@H]2C[C@H](O)[C@@H](CO)O2)c(=O)n1 [Decitabine] (partner 2 µM)
Method in brief: as §1

Row | Cell Line | relative viability (Tivantinib + Lapatinib; first compound 0.01 µM) | relative viability (Tivantinib + Lapatinib; first compound 0.1 µM) | relative viability (Tivantinib + Lapatinib; first compound 0.3162 µM) | relative viability (Crenolanib + Vorinostat; first compound 0.01 µM) | relative viability (Crenolanib + Vorinostat; first compound 0.03162 µM) | relative viability (Crenolanib + Vorinostat; first compound 0.1 µM) | relative viability (Crenolanib + Vorinostat; first compound 0.3162 µM) | relative viability (Crenolanib + Vorinostat; first compound 1 µM) | relative viability (Tivantinib + Alpelisib; first compound 0.01 µM) | relative viability (Tivantinib + Alpelisib; first compound 0.1 µM) | relative viability (Tivantinib + Alpelisib; first compound 0.3162 µM) | relative viability (Crenolanib + Decitabine; first compound 0.01 µM) | relative viability (Crenolanib + Decitabine; first compound 0.03162 µM) | relative viability (Crenolanib + Decitabine; first compound 0.1 µM) | relative viability (Crenolanib + Decitabine; first compound 0.3162 µM) | relative viability (Crenolanib + Decitabine; first compound 1 µM) | relative viability (Tivantinib + Lapatinib; first compound 0.03162 µM) | relative viability (Tivantinib + Alpelisib; first compound 0.03162 µM)
1 | LK-2 | 0.955 | 0.841 | 0.872 | 0.326 | 0.259 | 0.273 | 0.354 | 0.311 | 1.24 | 0.58 | 0.668 | 0.304 | 0.203 | 0.285 | 0.337 | 0.309 |  | 
2 | LOU-NH91 | 0.83 | 0.78 | 0.72 | 0.996 | 0.913 | 0.878 | 0.886 | 0.867 | 0.663 | 0.742 | 0.533 | 0.863 | 0.792 | 0.822 | 0.856 | 0.853 | 0.702 | 0.695
3 | LU99A | 0.987 | 0.889 | 0.905 | 0.58 | 0.576 | 0.43 | 0.501 | 0.455 | 0.477 | 0.453 | 0.369 | 0.976 | 0.844 | 0.897 | 1.07 | 0.975 | 1.14 | 0.477
4 | LXF-289 | 0.925 | 0.858 | 0.968 | 0.734 | 0.798 | 0.712 | 0.723 | 0.637 | 1.06 | 1.03 | 1.04 | 0.402 | 0.349 | 0.408 | 0.388 | 0.413 | 0.861 | 1.01
5 | NCI-H23 | 1.05 | 1.03 | 1.18 | 0.722 | 0.565 | 0.621 | 0.517 | 0.459 | 0.778 | 0.717 | 0.557 | 0.288 | 0.359 | 0.347 | 0.353 | 0.321 | 1.22 | 0.623
6 | NCI-H322M | 0.568 | 0.609 | 0.588 | 0.872 | 0.789 | 0.872 | 0.808 | 0.784 | 0.699 | 0.719 | 0.546 | 0.863 | 0.748 | 0.663 | 0.73 | 0.71 | 0.488 | 0.891
7 | NCI-H358 | 0.53 | 0.418 | 0.403 | 0.784 | 0.71 | 0.633 | 0.729 | 0.611 | 0.911 | 0.827 | 0.365 | 0.17 | 0.194 | 0.233 | 0.21 | 0.188 | 0.42 | 0.78
8 | NCI-H460 | 0.905 | 0.889 | 0.99 | 0.743 | 0.701 | 0.688 | 1.16 | 0.768 | 0.508 | 0.447 | 0.473 | 0.261 | 0.475 | 0.442 | 0.682 | 0.555 | 0.922 | 0.373
9 | NCI-H520 | 0.893 | 0.638 | 0.795 | 0.703 | 0.641 | 0.733 | 0.765 | 0.652 | 0.921 | 0.815 | 0.925 | 0.54 | 0.492 | 0.451 | 0.575 | 0.481 | 0.822 | 0.991
10 | NCI-H596 | 1.04 | 1.01 | 0.964 | 0.586 | 0.546 | 0.616 | 0.592 | 0.594 | 0.623 | 0.358 | 0.433 | 1.09 | 0.991 | 0.933 | 1.05 | 1.03 | 1.05 | 0.397
11 | NCI-H647 | 1.09 | 0.86 | 1.07 | 0.631 | 0.66 | 0.366 | 0.679 | 0.722 | 1.15 | 1.09 | 1.14 | 0.376 | 0.401 | 0.362 | 0.502 | 0.346 | 0.86 | 1.16
12 | NCI-H650 | 0.907 | 1.02 | 0.964 | 0.408 | 0.42 | 0.468 | 0.368 | 0.417 | 1.24 | 0.956 | 1.02 | 0.295 | 0.306 | 0.281 | 0.295 | 0.33 |  | 
13 | NCI-H661 | 0.579 | 0.474 |  | 0.772 | 0.778 | 0.813 | 0.845 | 0.846 | 0.404 | 0.72 |  | 0.534 | 0.514 | 0.544 | 0.555 | 0.541 | 0.46 | 0.86
14 | NCI-H727 | 0.824 | 0.802 |  | 1.35 | 1.31 | 1.06 | 1.32 | 1.07 | 0.537 | 0.505 |  | 0.872 | 0.851 | 0.877 | 0.997 | 0.904 | 0.689 | 0.526
15 | NCI-H838 | 1.04 | 0.891 | 0.894 | 0.747 | 0.74 | 0.698 | 0.722 | 0.738 | 0.915 | 0.973 | 0.953 | 0.482 | 0.463 | 0.45 | 0.466 | 0.418 | 0.96 | 1.06
16 | NCI-H1355 | 1.04 | 0.899 | 1.09 | 0.661 | 0.674 | 0.626 | 0.706 | 0.481 | 0.852 | 0.877 | 0.751 | 0.374 | 0.335 | 0.303 | 0.407 | 0.328 | 0.928 | 0.839
17 | NCI-H1395 | 1.23 | 0.981 | 0.992 | 0.766 | 0.601 | 0.96 | 0.689 | 0.695 | 1.18 | 1 | 0.878 | 0.754 | 0.674 | 0.739 | 0.695 | 0.669 | 1.18 | 1.23
18 | NCI-H1437 | 0.797 | 0.691 | 0.795 | 0.843 | 0.868 | 0.781 | 0.857 | 0.628 | 0.969 | 0.898 | 0.971 | 0.634 | 0.551 | 0.527 | 0.562 | 0.512 | 0.635 | 0.934
19 | NCI-H1651 | 0.866 | 0.799 | 0.929 | 0.604 | 0.488 | 0.583 | 0.51 | 0.538 | 1.04 | 1.01 | 0.915 | 0.678 | 0.583 | 0.592 | 0.589 | 0.638 | 0.691 | 0.856
20 | NCI-H1666 | 0.743 | 0.574 | 0.574 | 1.1 | 1.01 | 0.991 | 1.09 | 1.06 | 0.902 | 0.948 | 0.608 | 0.757 | 0.576 | 0.663 | 0.692 | 0.806 | 0.609 | 0.904
21 | NCI-H1734 | 1.01 | 1.05 | 1.01 | 0.852 | 0.801 | 0.786 | 0.946 | 0.757 | 0.677 | 0.64 | 0.681 | 0.55 | 0.549 | 0.507 | 0.591 | 0.507 | 0.938 | 0.597
22 | NCI-H1755 | 1.07 | 0.983 | 1.15 | 0.739 | 0.941 | 0.662 | 0.903 | 0.832 | 0.918 | 0.886 | 0.902 | 0.678 | 0.74 | 0.743 | 0.743 | 0.697 | 1.02 | 0.936
23 | NCI-H1793 | 0.836 | 0.651 |  | 0.8 | 0.741 | 0.698 | 0.863 | 0.698 | 0.678 | 0.703 |  | 0.649 | 0.495 | 0.537 | 0.549 | 0.475 | 0.735 | 0.858
24 | NCI-H1915 | 0.95 | 1 | 0.996 | 0.529 | 0.516 | 0.487 | 0.511 | 0.459 | 1.07 | 1.09 | 1.04 | 0.26 | 0.275 | 0.275 | 0.247 | 0.264 | 0.985 | 1.01
25 | NCI-H1944 | 0.832 | 0.895 | 0.906 | 0.586 | 0.591 | 0.491 | 0.693 | 0.4 | 0.79 | 0.735 | 0.554 | 0.474 | 0.441 | 0.423 | 0.468 | 0.458 | 0.742 | 0.782
26 | NCI-H1975 | 0.943 | 0.795 | 1.1 | 0.729 | 0.684 | 0.638 | 0.71 | 0.678 | 0.645 | 0.602 | 0.5 | 0.376 | 0.475 | 0.412 | 0.375 | 0.349 | 0.863 | 0.676
27 | NCI-H1993 | 0.94 | 0.706 | 0.852 | 0.956 | 0.728 | 0.777 | 0.797 | 0.729 | 0.682 | 0.644 | 0.669 | 0.578 | 0.629 | 0.615 | 0.62 | 0.651 | 0.74 | 0.707
28 | NCI-H2009 | 0.917 | 0.914 | 0.958 | 0.847 | 0.73 | 0.692 | 0.697 | 0.7 | 1.15 | 1.12 | 1.14 | 0.395 | 0.367 | 0.367 | 0.364 | 0.416 | 0.595 | 1.21
29 | NCI-H2023 | 0.884 | 0.703 | 0.577 | 0.705 | 0.531 | 0.617 | 0.813 | 0.634 | 0.549 | 0.5 | 0.492 | 0.153 | 0.266 | 0.242 | 0.263 | 0.213 | 0.735 | 0.642
30 | NCI-H2085 | 0.824 | 0.765 | 0.82 |  | 0.764 | 0.809 | 0.781 | 0.759 | 1.03 | 1.01 | 0.837 |  | 0.538 | 0.517 | 0.546 | 0.534 | 0.77 | 0.934
